The source made the active and inactive calls. Rule as the data show it, for most assays here: actives have a measured Kd and inactives only a lower limit.
Columns and labels:
[1] = molecular target: Protein kinase C alpha type (Homo sapiens, UniProt P17252)
[2] = molecular target: Ribosomal protein S6 kinase alpha-5 (Homo sapiens, UniProt O75582)
[3] = molecular target: Protein kinase C beta type (Homo sapiens, UniProt P05771)
[4] = molecular target: Serine/threonine-protein kinase SIK2 (Homo sapiens, UniProt Q9H0K1)
Sequence of Serine/threonine-protein kinase SIK2 (Q9H0K1 whole entry): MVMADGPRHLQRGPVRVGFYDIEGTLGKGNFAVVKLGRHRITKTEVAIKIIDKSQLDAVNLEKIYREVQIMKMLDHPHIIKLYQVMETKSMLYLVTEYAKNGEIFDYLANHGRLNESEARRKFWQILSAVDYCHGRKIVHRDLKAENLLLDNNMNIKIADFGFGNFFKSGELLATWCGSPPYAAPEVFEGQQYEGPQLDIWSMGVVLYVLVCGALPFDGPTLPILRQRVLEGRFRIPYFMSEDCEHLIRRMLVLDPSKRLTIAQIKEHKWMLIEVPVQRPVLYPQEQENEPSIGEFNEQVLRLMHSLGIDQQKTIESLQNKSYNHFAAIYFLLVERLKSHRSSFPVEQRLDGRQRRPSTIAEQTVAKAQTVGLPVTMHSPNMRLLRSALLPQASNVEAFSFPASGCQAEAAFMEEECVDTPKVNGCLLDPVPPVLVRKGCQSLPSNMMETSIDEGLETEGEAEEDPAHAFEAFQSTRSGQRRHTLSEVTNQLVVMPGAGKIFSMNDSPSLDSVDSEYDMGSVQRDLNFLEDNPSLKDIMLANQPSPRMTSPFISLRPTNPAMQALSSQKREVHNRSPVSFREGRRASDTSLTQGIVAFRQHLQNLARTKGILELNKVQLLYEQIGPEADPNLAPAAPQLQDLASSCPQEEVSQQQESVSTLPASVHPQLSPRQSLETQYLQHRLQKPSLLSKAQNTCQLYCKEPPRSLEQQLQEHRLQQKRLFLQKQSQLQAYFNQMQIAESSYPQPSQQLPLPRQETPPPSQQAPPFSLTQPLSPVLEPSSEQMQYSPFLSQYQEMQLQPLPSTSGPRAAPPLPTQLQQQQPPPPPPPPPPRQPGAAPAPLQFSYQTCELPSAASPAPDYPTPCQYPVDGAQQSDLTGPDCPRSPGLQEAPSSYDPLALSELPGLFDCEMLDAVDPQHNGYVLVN

[5] = molecular target: Mitotic checkpoint serine/threonine-protein kinase BUB1 (Homo sapiens, UniProt O43683)
Sequence of Mitotic checkpoint serine/threonine-protein kinase BUB1 (O43683 whole entry): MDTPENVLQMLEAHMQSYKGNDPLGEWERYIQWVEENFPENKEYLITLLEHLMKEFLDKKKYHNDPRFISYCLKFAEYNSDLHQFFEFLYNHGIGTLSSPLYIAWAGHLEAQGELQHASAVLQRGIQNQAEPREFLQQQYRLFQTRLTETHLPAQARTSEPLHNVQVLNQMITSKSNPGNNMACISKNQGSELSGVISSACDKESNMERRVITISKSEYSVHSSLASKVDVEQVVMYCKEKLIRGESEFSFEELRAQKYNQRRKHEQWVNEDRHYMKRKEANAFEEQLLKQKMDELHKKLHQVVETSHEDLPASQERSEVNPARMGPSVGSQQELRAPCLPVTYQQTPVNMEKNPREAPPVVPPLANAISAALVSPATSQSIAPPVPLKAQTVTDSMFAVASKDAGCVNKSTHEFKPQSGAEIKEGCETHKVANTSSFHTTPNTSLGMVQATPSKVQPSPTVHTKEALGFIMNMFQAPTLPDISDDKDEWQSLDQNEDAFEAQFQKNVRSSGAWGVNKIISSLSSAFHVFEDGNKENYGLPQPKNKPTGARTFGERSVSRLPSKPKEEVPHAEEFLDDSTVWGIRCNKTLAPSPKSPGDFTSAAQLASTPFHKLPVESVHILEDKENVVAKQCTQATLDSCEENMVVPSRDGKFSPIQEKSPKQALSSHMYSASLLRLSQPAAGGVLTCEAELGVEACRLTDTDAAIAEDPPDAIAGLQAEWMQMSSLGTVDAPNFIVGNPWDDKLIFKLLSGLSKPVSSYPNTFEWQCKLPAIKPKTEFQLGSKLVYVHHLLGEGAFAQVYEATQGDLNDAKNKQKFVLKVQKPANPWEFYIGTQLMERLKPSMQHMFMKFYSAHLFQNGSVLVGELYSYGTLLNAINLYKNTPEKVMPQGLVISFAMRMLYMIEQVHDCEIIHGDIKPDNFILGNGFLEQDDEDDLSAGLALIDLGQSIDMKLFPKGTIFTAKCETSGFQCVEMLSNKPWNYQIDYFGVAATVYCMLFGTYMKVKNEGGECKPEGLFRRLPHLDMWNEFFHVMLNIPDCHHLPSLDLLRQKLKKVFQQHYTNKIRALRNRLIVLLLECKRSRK

ADP/ATP translocase 2 = molecular target: T1, ADP/ATP translocase 2 (Homo sapiens, UniProt P05141)
T1 sequence (P05141 whole entry): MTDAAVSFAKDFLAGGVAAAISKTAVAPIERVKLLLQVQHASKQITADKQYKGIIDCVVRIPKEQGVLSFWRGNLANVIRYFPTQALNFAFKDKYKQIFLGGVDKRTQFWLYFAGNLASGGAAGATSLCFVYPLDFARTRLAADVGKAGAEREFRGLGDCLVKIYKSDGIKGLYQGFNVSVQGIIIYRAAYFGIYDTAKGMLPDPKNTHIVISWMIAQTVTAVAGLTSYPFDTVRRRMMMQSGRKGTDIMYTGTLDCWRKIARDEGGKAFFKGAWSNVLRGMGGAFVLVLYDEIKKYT

[6] = molecular target: T2, EKC/KEOPS complex subunit TP53RK (Homo sapiens, UniProt Q96S44)
T2 sequence (Q96S44 whole entry): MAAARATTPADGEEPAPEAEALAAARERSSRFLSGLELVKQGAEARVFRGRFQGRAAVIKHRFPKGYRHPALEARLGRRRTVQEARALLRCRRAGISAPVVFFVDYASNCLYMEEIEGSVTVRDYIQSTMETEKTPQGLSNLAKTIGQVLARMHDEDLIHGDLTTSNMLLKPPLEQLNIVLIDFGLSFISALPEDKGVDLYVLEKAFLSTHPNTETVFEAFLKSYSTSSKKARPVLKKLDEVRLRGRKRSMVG

[7] = molecular target: 26S proteasome regulatory subunit 6B (Homo sapiens, UniProt P43686)
Sequence of 26S proteasome regulatory subunit 6B (P43686 whole entry): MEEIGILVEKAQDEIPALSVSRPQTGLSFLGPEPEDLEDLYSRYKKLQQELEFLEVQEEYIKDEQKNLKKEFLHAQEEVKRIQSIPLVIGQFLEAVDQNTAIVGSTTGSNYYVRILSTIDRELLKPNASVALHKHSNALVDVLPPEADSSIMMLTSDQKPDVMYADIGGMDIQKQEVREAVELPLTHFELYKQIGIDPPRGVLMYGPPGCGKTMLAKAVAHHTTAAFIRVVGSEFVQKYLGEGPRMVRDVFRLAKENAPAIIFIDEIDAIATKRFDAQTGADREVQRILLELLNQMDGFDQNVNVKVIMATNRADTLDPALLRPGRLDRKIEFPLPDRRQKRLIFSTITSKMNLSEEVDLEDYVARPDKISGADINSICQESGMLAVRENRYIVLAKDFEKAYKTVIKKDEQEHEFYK

[8] = molecular target: T3, Tyrosine-protein kinase Tec (Homo sapiens, UniProt P42680)
T3 sequence (P42680 whole entry): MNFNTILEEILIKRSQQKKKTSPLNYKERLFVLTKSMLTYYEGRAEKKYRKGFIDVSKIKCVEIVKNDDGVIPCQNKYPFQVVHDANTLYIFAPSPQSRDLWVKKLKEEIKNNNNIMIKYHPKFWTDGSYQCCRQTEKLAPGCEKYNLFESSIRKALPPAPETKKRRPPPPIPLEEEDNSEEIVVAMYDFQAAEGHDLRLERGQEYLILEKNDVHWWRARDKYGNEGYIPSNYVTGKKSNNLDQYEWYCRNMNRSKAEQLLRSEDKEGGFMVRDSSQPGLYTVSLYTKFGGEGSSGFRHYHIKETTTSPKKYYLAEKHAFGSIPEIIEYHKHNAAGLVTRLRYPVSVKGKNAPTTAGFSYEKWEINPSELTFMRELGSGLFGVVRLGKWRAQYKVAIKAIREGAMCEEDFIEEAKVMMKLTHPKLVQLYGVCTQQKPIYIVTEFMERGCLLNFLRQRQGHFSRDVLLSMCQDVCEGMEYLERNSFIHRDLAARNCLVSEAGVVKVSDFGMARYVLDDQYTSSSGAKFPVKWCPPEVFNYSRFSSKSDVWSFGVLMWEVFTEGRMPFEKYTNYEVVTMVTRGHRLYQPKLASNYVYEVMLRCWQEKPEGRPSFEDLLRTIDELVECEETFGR

[9] = molecular target: T4, Interleukin-1 receptor-associated kinase 3 (Homo sapiens, UniProt Q9Y616)
T4 sequence (Q9Y616 whole entry): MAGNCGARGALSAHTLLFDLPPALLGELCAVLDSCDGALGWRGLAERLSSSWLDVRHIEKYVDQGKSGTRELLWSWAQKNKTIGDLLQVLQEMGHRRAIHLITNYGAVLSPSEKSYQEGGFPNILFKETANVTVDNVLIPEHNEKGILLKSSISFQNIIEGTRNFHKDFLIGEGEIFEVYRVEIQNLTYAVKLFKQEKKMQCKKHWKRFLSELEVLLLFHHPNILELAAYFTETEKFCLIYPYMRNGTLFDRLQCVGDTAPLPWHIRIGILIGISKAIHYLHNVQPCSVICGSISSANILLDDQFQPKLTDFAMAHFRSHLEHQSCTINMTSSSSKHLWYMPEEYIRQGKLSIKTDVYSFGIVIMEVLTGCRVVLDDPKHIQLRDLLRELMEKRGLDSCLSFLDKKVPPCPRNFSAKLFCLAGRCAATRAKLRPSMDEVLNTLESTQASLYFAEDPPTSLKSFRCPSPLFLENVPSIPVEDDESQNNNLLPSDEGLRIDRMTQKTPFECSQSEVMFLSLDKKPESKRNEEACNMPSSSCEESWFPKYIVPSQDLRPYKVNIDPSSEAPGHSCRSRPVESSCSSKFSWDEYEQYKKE

[10] = molecular target: T5, Adenine phosphoribosyltransferase (Homo sapiens, UniProt P07741)
T5 sequence (P07741 whole entry): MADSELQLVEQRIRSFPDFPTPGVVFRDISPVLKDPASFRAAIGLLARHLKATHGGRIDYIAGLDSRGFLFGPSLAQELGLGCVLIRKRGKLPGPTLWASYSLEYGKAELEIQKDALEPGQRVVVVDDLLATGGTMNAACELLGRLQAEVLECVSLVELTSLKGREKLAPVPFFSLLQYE
Also: in the data inactive means no Kd found up to 30 µM.

Sequence of Protein kinase C beta type (P05771 whole entry): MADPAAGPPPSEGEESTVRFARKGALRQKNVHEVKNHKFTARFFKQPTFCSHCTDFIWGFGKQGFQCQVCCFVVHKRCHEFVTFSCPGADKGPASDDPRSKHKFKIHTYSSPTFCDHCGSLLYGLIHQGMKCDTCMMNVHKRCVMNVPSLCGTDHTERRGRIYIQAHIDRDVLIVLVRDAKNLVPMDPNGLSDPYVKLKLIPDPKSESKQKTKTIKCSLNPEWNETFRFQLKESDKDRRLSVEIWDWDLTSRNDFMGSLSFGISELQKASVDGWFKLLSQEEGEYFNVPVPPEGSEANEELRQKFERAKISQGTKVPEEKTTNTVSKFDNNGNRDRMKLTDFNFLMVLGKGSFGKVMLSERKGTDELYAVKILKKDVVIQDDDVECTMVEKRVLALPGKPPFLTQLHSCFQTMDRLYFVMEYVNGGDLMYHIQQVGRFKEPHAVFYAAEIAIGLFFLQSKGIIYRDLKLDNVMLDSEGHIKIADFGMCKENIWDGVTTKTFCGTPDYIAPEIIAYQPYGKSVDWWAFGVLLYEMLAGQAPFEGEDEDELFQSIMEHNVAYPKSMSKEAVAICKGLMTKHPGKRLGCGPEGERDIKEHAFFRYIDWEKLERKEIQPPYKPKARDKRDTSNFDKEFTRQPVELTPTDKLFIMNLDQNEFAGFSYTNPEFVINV
Sequence of Ribosomal protein S6 kinase alpha-5 (O75582 whole entry): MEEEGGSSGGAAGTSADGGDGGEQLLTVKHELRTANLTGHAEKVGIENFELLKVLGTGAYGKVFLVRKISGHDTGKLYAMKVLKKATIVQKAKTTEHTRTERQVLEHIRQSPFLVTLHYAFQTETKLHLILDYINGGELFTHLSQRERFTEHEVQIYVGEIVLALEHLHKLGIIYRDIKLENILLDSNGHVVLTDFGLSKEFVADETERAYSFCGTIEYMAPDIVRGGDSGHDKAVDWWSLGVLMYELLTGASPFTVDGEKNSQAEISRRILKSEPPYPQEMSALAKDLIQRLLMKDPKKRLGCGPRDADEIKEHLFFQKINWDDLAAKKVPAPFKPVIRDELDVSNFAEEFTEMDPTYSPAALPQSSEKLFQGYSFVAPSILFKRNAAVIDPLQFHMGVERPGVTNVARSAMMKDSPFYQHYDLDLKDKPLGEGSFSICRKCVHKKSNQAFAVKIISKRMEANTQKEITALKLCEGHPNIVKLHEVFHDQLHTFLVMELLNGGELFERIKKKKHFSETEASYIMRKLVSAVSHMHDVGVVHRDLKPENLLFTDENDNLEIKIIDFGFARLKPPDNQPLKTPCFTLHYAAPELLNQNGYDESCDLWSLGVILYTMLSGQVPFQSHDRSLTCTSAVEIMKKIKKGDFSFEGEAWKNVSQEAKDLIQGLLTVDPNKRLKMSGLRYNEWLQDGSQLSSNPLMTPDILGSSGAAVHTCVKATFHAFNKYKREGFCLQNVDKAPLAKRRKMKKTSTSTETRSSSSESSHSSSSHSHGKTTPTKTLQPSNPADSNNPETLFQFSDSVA

Row | Compound | Kd [1] | Kd [2] | Kd [3] | Kd [4] | Kd [5] | Kd (ADP/ATP translocase 2) | Kd [6] | Kd [7] | Kd [8] | Kd [9] | Kd [10]
1 | CCc1nc(C(N)=O)c(Nc2ccc(N3CCC(N4CCN(C)CC4)CC3)c(OC)c2)nc1NC1CCOCC1 [GILTERITINIB] | – | > 30 µM (inactive) | > 30 µM (inactive) | > 30 µM (inactive) | 0.191 µM (active) | 0.451 µM (active) | 2.72 µM (active) | > 30 µM (inactive) | > 30 µM (inactive) | – | –
2 | Cc1c(Cn2c(C)nc3c(C(=O)O)cc(N4CCOCC4)cc32)cccc1C(F)(F)F [GSK-2636771] | > 30 µM (inactive) | > 30 µM (inactive) | > 30 µM (inactive) | > 30 µM (inactive) | > 30 µM (inactive) | > 30 µM (inactive) | > 30 µM (inactive) | > 30 µM (inactive) | > 30 µM (inactive) | > 30 µM (inactive) | –
3 | C[C@]1(O)C[C@@H](c2nc(-c3ccc4ccc(-c5ccccc5)nc4c3)c3c(N)nccn32)C1 [LINSITINIB] | – | – | > 30 µM (inactive) | > 30 µM (inactive) | > 30 µM (inactive) | > 30 µM (inactive) | > 30 µM (inactive) | > 30 µM (inactive) | > 30 µM (inactive) | > 30 µM (inactive) | –
4 | CC1(C)CNc2cc(NC(=O)c3cccnc3NCc3ccncc3)ccc21 [MOTESANIB] | > 30 µM (inactive) | – | > 30 µM (inactive) | – | > 30 µM (inactive) | > 30 µM (inactive) | > 30 µM (inactive) | > 30 µM (inactive) | – | – | > 30 µM (inactive)
5 | C=CCN(/C=C1/C(=O)O[C@H](COC)[C@@]2(C)C1=C(O)C(=O)C1=C2[C@H](OC(C)=O)C[C@]2(C)C(=O)CC[C@@H]12)CC=C [SONOLISIB] | > 30 µM (inactive) | > 30 µM (inactive) | > 30 µM (inactive) | > 30 µM (inactive) | – | > 30 µM (inactive) | > 30 µM (inactive) | > 30 µM (inactive) | > 30 µM (inactive) | > 30 µM (inactive) | –
6 | CN1CCN(c2nc(C3=C(c4c[nH]c5ccccc45)C(=O)NC3=O)c3ccccc3n2)CC1 [SOTRASTAURIN] | – | > 30 µM (inactive) | – | > 30 µM (inactive) | > 30 µM (inactive) | > 30 µM (inactive) | > 30 µM (inactive) | > 30 µM (inactive) | > 30 µM (inactive) | > 30 µM (inactive) | –
7 | CC(C)(O)CC(=O)NCCn1ccc2ncnc(Nc3ccc(Oc4cccc(C(F)(F)F)c4)c(Cl)c3)c21 [TAK-285] | > 30 µM (inactive) | > 30 µM (inactive) | > 30 µM (inactive) | > 30 µM (inactive) | > 30 µM (inactive) | > 30 µM (inactive) | > 30 µM (inactive) | > 30 µM (inactive) | > 30 µM (inactive) | > 30 µM (inactive) | –

Other lines, results leading:

Row | Kd [1] | Kd [2] | Kd [3] | Kd [4] | Kd [5] | Kd (ADP/ATP translocase 2) | Kd [6] | Kd [7] | Kd [8] | Kd [9] | Kd [10] | Compound
8 | > 30 µM (inactive) | > 30 µM (inactive) | > 30 µM (inactive) | > 30 µM (inactive) | > 30 µM (inactive) | > 30 µM (inactive) | > 30 µM (inactive) | > 30 µM (inactive) | > 30 µM (inactive) | > 30 µM (inactive) | – | O=c1[nH]c([C@@H]2CCCN2)nc2c1oc1ccc(Cl)cc12
9 | 0.53 µM (active) | > 30 µM (inactive) | 1.62 µM (active) | > 30 µM (inactive) | > 30 µM (inactive) | > 30 µM (inactive) | > 30 µM (inactive) | > 30 µM (inactive) | > 30 µM (inactive) | > 30 µM (inactive) | – | CCN1CCN(Cc2ccc(Nc3ncc(F)c(-c4cc(F)c5nc(C)n(C(C)C)c5c4)n3)nc2)CC1 [ABEMACICLIB]
10 | > 30 µM (inactive) | – | > 30 µM (inactive) | – | > 30 µM (inactive) | > 30 µM (inactive) | > 30 µM (inactive) | > 30 µM (inactive) | – | – | > 30 µM (inactive) | CN(C)C/C=C/C(=O)Nc1cc2c(Nc3ccc(F)c(Cl)c3)ncnc2cc1O[C@H]1CCOC1 [AFATINIB]
11 | > 30 µM (inactive) | – | > 30 µM (inactive) | – | – | > 30 µM (inactive) | > 30 µM (inactive) | > 30 µM (inactive) | – | – | > 30 µM (inactive) | C[C@@]1(C(=O)Nc2ccc(F)nc2)CCCN1c1nc(Nc2cc(C3CC3)n[nH]2)c2cccn2n1 [BMS-754807]
12 | > 30 µM (inactive) | – | > 30 µM (inactive) | – | > 30 µM (inactive) | > 30 µM (inactive) | > 30 µM (inactive) | > 30 µM (inactive) | – | – | > 30 µM (inactive) | COc1cc2c(Oc3ccc4[nH]c(C)cc4c3F)ncnc2cc1OCCCN1CCCC1 [CEDIRANIB]
13 | > 30 µM (inactive) | > 30 µM (inactive) | > 30 µM (inactive) | > 30 µM (inactive) | > 30 µM (inactive) | > 30 µM (inactive) | > 30 µM (inactive) | > 30 µM (inactive) | > 30 µM (inactive) | > 30 µM (inactive) | – | COc1cc2ncnc(Nc3ccc(F)c(Cl)c3)c2cc1NC(=O)/C=C/CN1CCCCC1 [DACOMITINIB ANHYDROUS]
14 | > 30 µM (inactive) | > 30 µM (inactive) | > 30 µM (inactive) | > 30 µM (inactive) | > 30 µM (inactive) | > 30 µM (inactive) | > 30 µM (inactive) | > 30 µM (inactive) | > 30 µM (inactive) | > 30 µM (inactive) | – | FC(F)(F)c1ccc(CNc2ccc(Cc3c[nH]c4ncc(Cl)cc34)cn2)cn1 [PEXIDARTINIB]
15 | > 30 µM (inactive) | > 30 µM (inactive) | > 30 µM (inactive) | > 30 µM (inactive) | > 30 µM (inactive) | > 30 µM (inactive) | > 30 µM (inactive) | > 30 µM (inactive) | > 30 µM (inactive) | > 30 µM (inactive) | – | Cc1cc(C(=O)Nc2cc(Oc3ccc4nc(NC(=O)C5CC5)cn4n3)ccc2C)n(C)n1 [TAK-593]
16 | > 30 µM (inactive) | > 30 µM (inactive) | > 30 µM (inactive) | > 30 µM (inactive) | > 30 µM (inactive) | > 30 µM (inactive) | > 30 µM (inactive) | > 30 µM (inactive) | > 30 µM (inactive) | > 30 µM (inactive) | – | CNC(=O)c1cc(COc2nnc(Nc3ccc(Cl)cc3)c3ccoc23)ccn1 [TELATINIB]
17 | > 30 µM (inactive) | > 30 µM (inactive) | > 30 µM (inactive) | > 30 µM (inactive) | > 30 µM (inactive) | > 30 µM (inactive) | > 30 µM (inactive) | > 30 µM (inactive) | > 30 µM (inactive) | > 30 µM (inactive) | – | Cc1cc(-c2cc(OC(=O)c3ccccc3)ccc2Cl)cc2nnc(Nc3ccc(OCCN4CCCC4)cc3)nc12 [TG100-801]

Reference: ChEMBL document CHEMBL3991601, “The target landscape of clinical kinase drugs” (Science, 2017)
